Literature values, collected in US10665326B2, “Deep proteome markers of human biological aging and methods of determining a biological aging clock” (INSILICO MEDICINE, INC., priority 2017, dated 2020).

Tests used:
[1] = system: pre-senescent and senescent cells

| Compound | mitogenic response (muscle cells) | killing of pre-senescent and senescent cells [1] |
| --- | --- | --- |
| 740 Y-P | stimulates a mitogenic response | – |
| O=c1c(O)c(-c2ccc(O)c(O)c2)oc2cc(O)cc(O)c12 [quercetin] | – | able to kill pre-senescent and senescent cells |
| Tocotrienols | – | able to kill pre-senescent and senescent cells |
